Measurements taken from US12509424B2, “Compound and composition as PDGF receptor kinase inhibitor” (NIPPON SHINYAKU CO., LTD., priority 2019, dated 2025).

Legend:
[1] = biological target: PDGFR-β (Homo sapiens (Human), UniProt P09619); assay: PDGFR-β tyrosine kinase inhibitory action (HTRF KinEASE-TK); type: biochemical; settings: PDGFR-β enzyme 1 ng/μL, 30° C. for 30 minutes; read-out: PDGF-β IC50
Method in brief: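 Recombinant PDGFR-β at 1 ng/μL final with TK substrate-3-biotin in a substrate solution containing 0.6 μM ATP; buffer 50 mM HEPES pH 7.0, 5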

[2] = tested on: pulmonary arterial smooth muscle cells; assay: Suppression of proliferation of pulmonary arterial smooth muscle cells (PDGF-BB stimulation, BrdU); type: cell-based; settings: PASMC, 24 h; healthy human derived pulmonary arterial smooth muscle cells; human PDGF-BB 10 ng/mL stimulation; BrdU uptake after 1 day; test substance final concentration 3 to 10,000 nM; read-out: Human normal PASMC proliferation suppression (PDGF stimulation_IC50)
Method in brief: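 Test compound (final 3 to 10,000 nM) was added together with BrdU and PDGF-BB (final 10 ng/mL) to healthy human pulmonary artery smooth muscle cells held a day in 0.1% FBS. Proliferation was read after 1 day as anti-BrdU-detected BrdU incorporation.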

PDGFR-β, sequence (P09619 33-1106): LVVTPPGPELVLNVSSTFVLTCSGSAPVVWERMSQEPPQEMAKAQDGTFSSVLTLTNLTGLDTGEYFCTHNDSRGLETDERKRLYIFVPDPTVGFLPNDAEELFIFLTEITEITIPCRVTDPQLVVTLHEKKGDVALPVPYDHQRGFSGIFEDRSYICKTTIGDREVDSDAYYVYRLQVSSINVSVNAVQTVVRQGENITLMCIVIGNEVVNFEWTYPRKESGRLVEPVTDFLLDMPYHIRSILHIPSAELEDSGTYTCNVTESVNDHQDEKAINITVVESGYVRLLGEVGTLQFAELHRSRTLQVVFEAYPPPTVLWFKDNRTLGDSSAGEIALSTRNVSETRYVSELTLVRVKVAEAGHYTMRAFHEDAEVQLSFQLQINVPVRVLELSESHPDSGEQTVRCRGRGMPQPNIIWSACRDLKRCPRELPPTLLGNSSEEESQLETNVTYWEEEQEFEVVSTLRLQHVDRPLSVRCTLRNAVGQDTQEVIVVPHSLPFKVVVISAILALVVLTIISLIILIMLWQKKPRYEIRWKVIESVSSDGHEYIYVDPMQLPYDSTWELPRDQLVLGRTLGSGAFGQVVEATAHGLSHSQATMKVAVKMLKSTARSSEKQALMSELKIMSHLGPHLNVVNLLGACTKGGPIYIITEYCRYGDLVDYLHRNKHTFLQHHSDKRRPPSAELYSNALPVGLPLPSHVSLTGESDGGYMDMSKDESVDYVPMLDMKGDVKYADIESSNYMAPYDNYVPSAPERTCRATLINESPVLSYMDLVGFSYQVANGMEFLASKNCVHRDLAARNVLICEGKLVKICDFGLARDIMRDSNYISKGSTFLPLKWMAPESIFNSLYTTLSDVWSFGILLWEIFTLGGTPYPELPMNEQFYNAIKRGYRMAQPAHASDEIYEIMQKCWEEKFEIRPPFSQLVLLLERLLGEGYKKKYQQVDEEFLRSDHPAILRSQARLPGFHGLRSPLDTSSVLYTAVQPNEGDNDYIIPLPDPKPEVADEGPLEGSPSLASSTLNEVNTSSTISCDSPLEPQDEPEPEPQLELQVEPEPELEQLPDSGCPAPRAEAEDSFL

Compound | IC50 [1] [nM] | IC50 [2] [nM]
Nc1ccc(/C(F)=C/c2cc(C(=O)N[C@H]3CCCC[C@@H]3O)ccc2F)cn1 [Example 191, 3-[(Z)-2-(6-aminopyridin-3-yl)-2-fluoroethenyl]-4-fluoro-N-[(1S,2S)-2-hydroxycyclohexyl]benzamide] | 35 | 29
Nc1ncc(/C(F)=C/c2cc(C(=O)N[C@H]3CCCC[C@@H]3O)ccc2F)cn1 [Example 192, 3-[(Z)-2-(2-aminopyrimidin-5-yl)-2-fluoroethenyl]-4-fluoro-N-[(1S,2S)-2-hydroxycyclohexyl]benzamide] | 29 | 24
CCN1CCN(Cc2cncc(/C(F)=C/c3cc(C(=O)N[C@H]4CCCC[C@@H]4O)ccc3C)c2)CC1 [Example 194, 3-[(Z)-2-{5-[(4-ethylpiperazin-1-yl)methyl]pyridin-3-yl}-2-fluoroethenyl]-N-[(1S,2S)-2-hydroxycyclohexyl]-4-methylbenzamide] | 35 | 74
Cc1ccc(C(=O)N[C@H]2CCCC[C@@H]2O)cc1/C=C(\F)c1ccc(NCCN(C)C)nc1 [Example 197, 3-[(Z)-2-(6-{[2-(dimethylamino)ethyl]amino}pyridin-3-yl)-2-fluoroethenyl]-N-[(1S,2S)-2-hydroxycyclohexyl]-4-methylbenzamide] | 120 | 110
Cc1ncc(C(=O)N[C@H]2CCCC[C@@H]2O)cc1/C=C(\F)c1ccc(NCC2CC2)nc1 [Example 199, 5-[(Z)-2-{6-[(cyclopropylmethyl)amino]pyridin-3-yl}-2-fluoroethenyl]-N-[(1S,2S)-2-hydroxycyclohexyl]-6-methylpyridine-3-carboxamide] | 52 | 70
Cc1ccc(C(=O)NCC(O)C(C)(C)C)cc1/C=C(\F)c1cncc(CN2CCN(C)CC2)c1 (stereo not shown) [Example 201, 3-[(Z)-2-fluoro-2-{5-[(4-methylpiperazin-1-yl)methyl]pyridin-3-yl}ethenyl]-N-(2-hydroxy-3,3-dimethylbutyl)-4-methylbenzamide] | 38 | 120

Now those with a lower IC50 [1], led by results:

IC50 [1] [nM] | Compound | IC50 [2] [nM]
26 | O=C(N[C@H]1CCCC[C@@H]1O)c1ccc(F)c(/C=C(\F)c2cncc(NC3COC3)c2)c1 [Example 196, 4-fluoro-3-[(Z)-2-fluoro-2-{5-[(oxetan-3-yl)amino]pyridin-3-yl}ethenyl]-N-[(1S,2S)-2-hydroxycyclohexyl]benzamide] | 31
19 | Cc1ncc(C(=O)N[C@H]2CCCC[C@@H]2O)cc1/C=C(\F)c1cncc(NC2COC2)c1 [Example 195, 5-[(Z)-2-fluoro-2-{5-[(oxetan-3-yl)amino]pyridin-3-yl}ethenyl]-N-[(1S,2S)-2-hydroxycyclohexyl]-6-methylpyridine-3-carboxamide] | 26
16 | Cc1ccc(C(=O)N[C@H]2c3ccccc3C[C@@H]2O)cc1/C=C(\F)c1cncc(CN2CCN(C)CC2)c1 [Example 200, 3-[(Z)-2-fluoro-2-{5-[(4-methylpiperazin-1-yl)methyl]pyridin-3-yl}ethenyl]-N-[(1S,2S)-2-hydroxy-2,3-dihydro-1H-inden-1-yl]-4-methylbenzamide] | 120
7.2 | Cc1ccc(C(=O)N[C@H]2CCCC[C@@H]2O)cc1/C=C(\F)c1cncc(NCCN(C)C)c1 [Example 198, 3-[(Z)-2-(5-{[2-(dimethylamino)ethyl]amino}pyridin-3-yl)-2-fluoroethenyl]-N-[(1S,2S)-2-hydroxycyclohexyl]-4-methylbenzamide] | 39
1 | Cc1ccc(C(=O)N[C@H]2CCCC[C@@H]2O)cc1/C=C(\F)c1cncc(NC2CCN(C)CC2)c1 [Example 193, 3-[(Z)-2-fluoro-2-{5-[(1-methylpiperidin-4-yl)amino]pyridin-3-yl}ethenyl]-N-[(1S,2S)-2-hydroxycyclohexyl]-4-methylbenzamide] | 18
